Data on 12 molecules can be found in PubChem BioAssay (NCI).

Several values for one entry are separate records, joined by “and”; a condition that tells them apart may be missing. Identical values can stand only once.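 48-hour exposure; five concentrations; linearly interpolated endpoints. GI50 marks 50% less growth. TGI is the concentration that stops growth completely.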

Test systems include HCT-15 colon; HOP-62 NSCLC; HT29 colon; OVCAR-4 ovarian; SK-MEL-28 melanoma; SK-OV-3 ovarian; UACC-62 melanoma; EKVX NSCLC; OVCAR-8 ovarian; SR leukemia.
What all share (test): NCI tumour cell line growth inhibition, 48 h

On to `COC1=C2C[C@H](O)C(C)C[C@@]2(OC)OC1=O` (stereo partly drawn), for which the TGI in the assay on HCT-15 colon, with HOP-62 NSCLC, in the assay with HT29 colon, in the assay on OVCAR-4 ovarian, in the assay on SK-MEL-28 melanoma and with SK-OV-3 ovarian was above 100 µM each time. The TGI in the assay on UACC-62 melanoma is above 100 µM.

As for `O=C1C2CC=CCC2C(=O)C12CCc1ccccc12` (stereo not drawn), the TGI in the assay with EKVX NSCLC, in the assay with HCT-15 colon, in the assay with HOP-62 NSCLC, in the assay with HT29 colon, in the assay with OVCAR-4 ovarian and with OVCAR-8 ovarian was above 100 µM each time. The TGI in the assay with SK-MEL-28 melanoma, in the assay on SK-OV-3 ovarian and in the assay with UACC-62 melanoma was above 100 µM throughout.

With `COc1cc([C@H]2c3cc4c(cc3[C@H](NCc3ccc([N+](=O)[O-])cc3)C3COC(=O)[C@H]32)OCO4)cc(OC)c1O` (stereo partly drawn), the TGI in the assay on EKVX NSCLC was above 23.6 µM; in the assay on HCT-15 colon, 6.44 µM; in the assay with HOP-62 NSCLC, 0.784 µM; with HT29 colon, 14.6 µM; in the assay with OVCAR-4 ovarian it was above 100 µM; in the assay on OVCAR-8 ovarian, 7.62 µM. Also, the figures for the TGI in the assay on SK-MEL-28 melanoma, in the assay with SK-OV-3 ovarian and in the assay on UACC-62 melanoma were above 100 µM, above 24.6 µM and 12.1 µM, respectively.

As for `NC(=O)C(=Cc1ccc(CP(=O)(O)O)cc1)C(N)=O`, the TGI with EKVX NSCLC, in the assay on HCT-15 colon, in the assay with HOP-62 NSCLC, in the assay with HT29 colon, with OVCAR-4 ovarian and with OVCAR-8 ovarian was above 100 µM in each case. Moreover, the TGI in the assay with SK-MEL-28 melanoma, with SK-OV-3 ovarian and in the assay on UACC-62 melanoma was above 100 µM each time.

For `COc1ccc(SC2c3ccc(C)cc3Oc3nc(N)c(C#N)c(N)c32)cc1` (stereo not drawn), the GI50 is 1730 nM in the assay with EKVX NSCLC; 1.72 µM with HCT-15 colon; 1.71 µM with HOP-62 NSCLC; 2.31 µM with HT29 colon; 1.66 µM in the assay on OVCAR-4 ovarian; 1.64 µM in the assay with OVCAR-8 ovarian. The GI50 in the assay on SK-MEL-28 melanoma was 1.75 µM; with SK-OV-3 ovarian, 1.78 µM; in the assay on UACC-62 melanoma, 1.6 µM. Also, the TGI came out at 3.2 µM in the assay on EKVX NSCLC; 3.3 µM in the assay with HCT-15 colon; 3.18 µM in the assay on HOP-62 NSCLC; 4.83 µM with HT29 colon; 3.15 µM with OVCAR-4 ovarian; 3.06 µM in the assay on OVCAR-8 ovarian. For the same molecule, the TGI is 3.2 µM in the assay on SK-MEL-28 melanoma, 3.17 µM in the assay with SK-OV-3 ovarian and 2.99 µM in the assay on UACC-62 melanoma.

For the molecule `COc1ccc2c3c(c4ccccc4cc13)C(=O)N(CCN(C)CCN)C2=O`, the GI50 in the assay with EKVX NSCLC is 538 nM; with HCT-15 colon, 0.0453 µM; in the assay on HOP-62 NSCLC it was 0.0267 µM; in the assay with HT29 colon it was 0.114 µM; with OVCAR-4 ovarian, 0.299 µM; in the assay with OVCAR-8 ovarian, 0.107 µM. Moreover, the figures for the GI50 with SK-MEL-28 melanoma, with SK-OV-3 ovarian and in the assay on UACC-62 melanoma were 1.09 µM, 0.0692 µM and 0.077 µM, respectively. The TGI in the assay on EKVX NSCLC amounted to 2.06 µM; with HCT-15 colon it was 1.01 µM; in the assay with HOP-62 NSCLC, 0.264 µM; in the assay on HT29 colon, 1.13 µM; in the assay with OVCAR-4 ovarian, 1.7 µM; with OVCAR-8 ovarian it was 1.61 µM. Besides, the TGI with SK-MEL-28 melanoma was 2.48 µM; with SK-OV-3 ovarian, 0.806 µM; with UACC-62 melanoma it was 1.56 µM.

With `c1ccc(Nn2c(CCCCCCCCc3nnc(COc4ccccc4)n3Nc3ccccc3)nnc2COc2ccccc2)cc1`, the GI50 is 9.88 µM and 5.62 µM with HCT-15 colon; 41.9 µM in the assay on HT29 colon; 25.8 µM and 88.1 µM with OVCAR-4 ovarian; 40 µM and 23.9 µM in the assay with OVCAR-8 ovarian; 22.9 µM and 57.1 µM in the assay with SK-MEL-28 melanoma; above 300 µM in the assay on SK-OV-3 ovarian. Further, the GI50 is 8.48 µM and 7.33 µM in the assay on SR leukemia; 1.28 µM in the assay with UACC-62 melanoma. In addition, the TGI with HCT-15 colon, in the assay on HOP-62 NSCLC, in the assay on HT29 colon, in the assay on OVCAR-4 ovarian, with OVCAR-8 ovarian and in the assay with SK-MEL-28 melanoma was above 300 µM in each case. Also, the TGI with SK-OV-3 ovarian was above 300 µM; in the assay with SR leukemia, above 300 µM; in the assay with UACC-62 melanoma it was > 40.8 µM and 68 µM.

For the molecule `CCn1c2ccc(C(=O)CCCN(C)C)cc2c2cc(C(=O)CCCN(C)C)ccc21`, the TGI came out at 6.79 µM in the assay on EKVX NSCLC; 8.92 µM with HCT-15 colon; 3.48 µM in the assay with HOP-62 NSCLC; 4.24 µM with HT29 colon; 4.17 µM in the assay on OVCAR-4 ovarian; 7.59 µM in the assay on OVCAR-8 ovarian. In addition, the TGI in the assay with SK-MEL-28 melanoma was found to be 18.3 µM; in the assay on SK-OV-3 ovarian, 22.1 µM; in the assay on UACC-62 melanoma, 20.8 µM.

On to `O=c1cc(-c2ccccc2)nc(/C=C(\O)c2ccncc2)n1-c1ccccc1`, for which the TGI with EKVX NSCLC, in the assay on HCT-15 colon, in the assay with HOP-62 NSCLC, in the assay on HT29 colon, in the assay with OVCAR-4 ovarian and in the assay with OVCAR-8 ovarian was above 100 µM in each case. The TGI in the assay on SK-MEL-28 melanoma, in the assay on SK-OV-3 ovarian and in the assay with UACC-62 melanoma was above 100 µM throughout.

For `C[C@]1(C(=O)O)N[C@H](C(=O)O)CS1`, the GI50 with HCT-15 colon, in the assay on HOP-62 NSCLC, with HT29 colon, in the assay with OVCAR-4 ovarian, in the assay on OVCAR-8 ovarian and in the assay with SK-MEL-28 melanoma was above 1000 µM in each case. Moreover, the GI50 in the assay on SK-OV-3 ovarian and with UACC-62 melanoma was above 1000 µM throughout. Further, the TGI with HCT-15 colon, with HOP-62 NSCLC, in the assay with HT29 colon, in the assay with OVCAR-4 ovarian, in the assay with OVCAR-8 ovarian and in the assay with SK-MEL-28 melanoma was above 1000 µM each time. The TGI in the assay with SK-OV-3 ovarian and in the assay with UACC-62 melanoma was above 1000 µM each time.

In the case of `CCCCN=C(NC#N)N(Cc1ccccc1)Cc1ccccc1`, the TGI with EKVX NSCLC was 74.9 µM; in the assay with HCT-15 colon, 29.8 µM; with HOP-62 NSCLC, 62 µM; with HT29 colon, 28.7 µM; in the assay on OVCAR-4 ovarian, above 100 µM; in the assay with OVCAR-8 ovarian, above 100 µM. The TGI amounted to 81.2 µM in the assay with SK-MEL-28 melanoma, 87.6 µM with SK-OV-3 ovarian and 34.8 µM with UACC-62 melanoma.

As for `Cc1ccc(C(=O)N2c3ccccc3N(C)n3cccc3C2CC(=O)O)cc1` (stereo not drawn), the TGI in the assay with EKVX NSCLC, in the assay on HCT-15 colon, in the assay with HOP-62 NSCLC, with HT29 colon, in the assay with OVCAR-4 ovarian and in the assay on OVCAR-8 ovarian was above 100 µM in each case. Further, the TGI in the assay with SK-MEL-28 melanoma and with UACC-62 melanoma was above 100 µM in each case.
